Test results taken from patent US7498408B2, “Ryanodine receptor polypeptides” (E. I. du Pont de Nemours and Company, priority 2002, dated 2009).

Key:
[1] = target: T1, recombinant Drosophila melanogaster ryanodine receptor (expressed in Sf9 cells) (Drosophila melanogaster, UniProt Q24498); assay type: cell-based
T1 construct: His tag + attB1 + Lox footprint (N-terminal vector extension; present only if the Cre-Lox vector was the one used) (N); expressed in transfected cells
Description: (§1) Several drops of a suspension of recombinant Spodoptera frugiperda cell line, Sf9, transiently expressing insect ryanodine receptors were placed on a poly-L-lysine-coated coverslip and allowed to attach. Cells were then rinsed in physiological saline having the following composition (mM): NaCl 130; KCl 5.4; MgCl2 1.2; CaCl2 1.0; NaHCO3 4.2; NaH2P04 7.3; Glucose 10; Sucrose 63; MES 20; pH 6.3. Cells were then bathed in physiological saline containing the calcium sensitive fluoroprobe, Fura-2 AM (2 μM), and Pluronic F127 (0.002%) for 30 min. Cells were rinsed in standard physiololgical saline for at least 15 min prior to testing. Testing was conducted in standard physiological saline, as the cell lines are devoid of functional voltage-gated calcium channels.
Cell-attached coverslips were placed in a sealed chamber with physiological saline continuously perfused across the cells using a peristaltic pump. Test compounds solubilized in physiological saline were applied by switching the perfusate source.
(§2) For studies involving the stable recombinant Spodoptera frugiperda cell line, Sf9, (other cell lines could also be used such as Sf21, S2, etc) expressing an insect ryanodine receptor from Drosophila melanogaster, or Heliothis virescens (alternatively receptors from other species such as Myzus persicae, Peregrinus maidis, Aphis gossypii, etc) were grown in T75 (or other appropriate sized) flasks in supplemented Grace's insect medium. Cells were maintained in an incubator at 22° C. until testing. Cells were suspension-loaded with the calcium sensitive fluoroprobe, Fura-2 AM (1-2 μM) and Pluronic F127 (0.002%) in culture medium for 30 minutes under agitation. Cells were then centrifuged and the pellet resuspended in physiological saline having the following composition (mM): NaCl 130; KCl 5.4; MgCl2 1.2; CaCl2 1.0; NaHCO3 4.2; NaH2P04 7.3; Glucose 10; Sucrose 63; MES 20; pH 6.3 at approximately 150,000-200,000 cells per well (96-well plate). After a 30 minute equilibration period the cell plate was tested using a Molecular Devices' FlexStation™ system with dual wavelength excitation (340 and 380 nm) and fluorescence emission measured at 510 nm. Test and control samples were added using integrated fluidics and the intracellular calcium monitored over a 2 minute period.

[2] = system: recombinant Heliothis virescens ryanodine receptor (expressed in Sf9 cells); assay: Calcium release assay in Sf9 cells expressing recombinant Heliothis virescens ryanodine receptor; assay type: cell-based; details: caffeine 10 mM; for cytosolic [Ca2+], Sf9 transiently expressing H. virescens ryanodine receptor (FIG. 4): 72 hr post-transfection, Cpd 5 3 μM
Description: as §1
(§3) Imaging studies were conducted using a Nikon Diaphot microscope with a 40× oil immersion objective (NA 1.3) Image acquisition and processing was performed using the MetaFluor™ imaging system from Universal Imaging Corporation (West Chester, Pa.) Calcium calibration was carried out using the Grynkiewicz equation with a dissociation constant (Kd) of 145 nM for Fura-2 (Grynkiewicz et al., 1985). Cell-attached coverslips were placed in a sealed chamber with physiological saline continuously perfused across the cells using a peristaltic pump. Test compounds solubilized in physiological saline were applied by switching the perfusate source.
as §2

[3] = system: control Sf9 cells without DNA / wild type Sf9; assay: Calcium response in control or wild-type Sf9 cells lacking recombinant receptor; assay type: cell-based, Spodoptera frugiperda; details: for calcium responses in control cells without DNA (FIG. 4): Compound 5 3 μM
Description: as §1, §3, §2

[4] = target: cockroach ryanodine receptor (roach femoral muscle membranes) (Periplaneta americana, UniProt Z9HFG3YSF4); assay: Radioligand displacement ([3H]-GN analog Cpd 1) from roach femoral muscle membranes; details: read-out: Displacement IC50 (nM) P. americana; displacement of [3H]-Cpd 1, roach muscle membranes, 60 min at 32° C.
Description: Mid and hind legs from 6-9 week old cockroaches were excised and immediately placed in liquid nitrogen. Excised legs could be stored at −80° C. for several months, if necessary, prior to further fractionation. Typically, membrane preparations started with approximately 55 g (wet weight) of excised legs. All subsequent steps were carried out at 4° C.
The legs were homogenized on ice using a Polytron (Brinkmann Instruments, Westbury, N.Y.) for 2 min at Setting #3. In order to remove all fragments of cuticle, the homogenate was first passed through two layers of cheesecloth and then through one layer of glass wool overlaid on two layers of cheesecloth. On occasion, the cheesecloth clogged with particulates prior to passing all material through. In such cases, fresh cheesecloth (and glass wool) was used for the remainder of the suspension. […] The supernatant was collected and centrifuged for 30 min at 30,000×gmax. The resulting pellet was resuspended in buffer A (1.5 M KCl, 0.3 M sucrose, 0.5 mM CaCl2, 20 mM Tris-HCl, pH 8.0). The membrane suspension was homogenized by hand (about 25 strokes) using a glass-teflon homogenizer. […] Subsequently, the membrane suspension was adjusted to 4 μg protein/μg by addition of buffer A and then stored in 1 ml aliquots at −80° C.
The assay was begun by addition of 25 μl of roach muscle membranes at 2 μg/μl (prepared by thawing and addition of an equal volume of buffer B), and incubation was carried out for 60 min at 32° C. Assays were carried out in triplicate.
The compound was allowed to pre-incubate with the membranes for 10 min at 32° C. […] Assays were carried out in triplicate.
Following incubation, assays were quenched with ice-cold buffer B and immediately filtered on pre-wefted Unifilter 96 GF/B filter microplates using a Unifilter 96 Harvester (PerkinElmer™, Boston, Mass.). Each assay well was then washed 10 times with buffer B, and collected on the same filter microplate. The filter microplates were then placed in a vacuum oven at 32° C. for 3 h, following which 50 μl of Microscint 0 (PerkinElmer™, Boston, Mass.) was added to each well. Plates were then heat sealed and counted using a Topcount microplate scintillation counter (PerkinElmer™, Boston, Mass.).

[5] = system: native cockroach ryanodine receptors (in embryonic neuronal cells); assay: Calcium release assay, calcium imaging in primary embryonic cockroach neuronal cells; assay type: cell-based, Periplaneta americana
Description: Embryonic neuronal cultures of the American cockroach Periplaneta americana were established, with minor modifications, following the method of Beadle and Lees (1988) (in Cell Culture Approaches to Invertebrate Neuroscience, Academic Press, New York, pp 123-127). Briefly, 26-27-day old oothecae were collected, surface-sterilized and cut open along a line one-third of the distance below the dorsal midline. The heads were removed and placed in Schneider's Drosophila medium (Invitrogen Life Technologies™, Carlsbad, Calif.). Using fine forceps 40 brains were individually removed and placed in a small glass vial containing 700 μl of ‘5+4’ medium (‘5+4’ medium contained 5 parts Schneider's Drosophila medium plus 4 parts roach Basal Medium Eagle, with Earle's salts (BME, Sigma™, St. Louis, Mo.). Roach BME (with Earle's salts) contained 5 parts Hepes (1 M), 1 part penicillin/streptomycin and 44 parts BME (with Earle's salts). ‘5+4’ medium was made fresh and sterile filtered (0.2 μm filter) just prior to use). The brains were dissociated by sequential trituration as follows: 1) brains were passed through a standard Pasteur pipette 10 times; 2) the resulting tissue suspension was passed an additional 5 times through a Pasteur pipet with tip flamed to about half of its original diameter; 3) a final 5 passes were performed using a Pasteur pipet with tip flamed to slightly less than half of its original diameter. A repeat pipettor was used to dispense a 5 μl volume of the resulting suspension into the center of each well of a 96-well, glass-bottom plate previously coated with poly-L-lysine (0.2 mg/ml solution). Cells attached to the bottom of the wells during a 50 min incubation at 27-29° C. 150 ul of a 1:1 mixture of Leibovitz's L-15 medium and Yunker's modified Grace's medium was added, and plates were maintained in a humid incubator at 27-29° C. until use. After cells were allowed to attach wells were filled with a 1:1 mixture of Leibovitz's L-15 medium and Yunker's modified Grace's medium (Leibovitz's L-15 and Grace's medium were obtained from Invitrogen Life Technologies™, Carlsbad, Calif. and Yunker's modified Grace's medium was made with Grace's medium modified by addition of 5 mg L-methionine, 10 mg L-alanine, 182 mg MgCl26H20, 1 g Albumin Fraction V, 7 ml Fetal bovine serum, 10 ml Chick embryo extract, 2 ml Penicillin/Streptomycin, and 2 mg 20-hydroxyecdysone (prepared in ethanol prior to addition) to a final volume of 100 ml and sterile filtered (0.2 μm filter)). Cells were maintained in a high humidity incubator at 29° C. until testing.
Cells were rinsed in standard physiological saline having the following composition (mM): NaCl 190; CaCl2 9; KCl 3.1; probenicid 1; Tris buffer 10; pH 7.2. Cells were then bathed in standard physiological saline containing the calcium sensitive fluoroprobe Fluo4 AM (2 μM) and Pluronic F127 (0.002%) for 45 min. Cells were then rinsed in standard physiological saline for at least 15 min prior to testing. Within the hour prior to testing, standard physiological saline was replaced with standard physiological saline containing the organic cation channel blocker pimozide (10 μM), to inhibit influx of external calcium through voltage-gated calcium channels. The 96-well plate was placed on a PriorTm motorized stage mounted onto a Nikon Diaphot microscope and imaged using a 20× Fluor objective (NA 0.75). Individual wells from the 96-well plate were sequentially excited with light at 495 nm, and the emitted fluorescence at 530 nm was detected using a Hamamatsu ORCA ER digital camera with 2 pixel binning (image size 672×512 pixels).
Acquisition control, image processing and image analysis were conducted using Universal Imaging Corporation's MetaMorph™ imaging software (Universal Imaging, West Chester, Pa.). A series of 3 “control” images were acquired for each well. Experimental compounds were added followed by acquisition of 4 “experimental” images for each well. […]

Compound	Calcium Release Threshold (nM) D. melanogaster [1]	cytosolic [Ca2+], Sf9 transiently expressing H. virescens ryanodine receptor (FIG. 4) [2]	calcium responses in control cells without DNA (FIG. 4) ([3]; caffeine 10 mM)	IC50 [4]	Calcium Release Threshold (nM) P. americana [5]	calcium responses, Sf9 stably expressing H. virescens ryanodine receptor (FIG. 5) ([2]; Compound 14 1 μM, Fura-2 AM imaging)	caffeine dose response, wild-type Sf9 cells (FIG. 6) ([3]; Sf9-WT, FlexStation, Fura-2)	response of lipid only (-DNA) or non-transfected cells ([3]; caffeine 10 mM)	calcium responses in control cells without DNA (FIG. 3) ([3]; caffeine 10 mM, Compound 16 10 and 100 nM)	Calcium Release (P. americana) ([5]; known ryanodine receptor agents, native receptors in embryonic neuronal cells, result in words)
Cc1cccc(C(=O)NC(C)C)c1NC(=O)c1cc(C(F)(F)F)nn1-c1ncccc1Cl [Cpd 5, 1-(3-Chloro-2-pyridinyl)-N-[2-methyl-6-[[(1-methylethyl)amino]carbonyl]phenyl]-3-(trifluoromethyl)-1H-pyrazole-5-carboxamide]	<300 nM	increase in cytosolic [Ca^2+]	No significant calcium responses	< 300 nM	<300 nM					
Cn1c(=O)c2c(ncn2C)n(C)c1=O [Caffeine]		increase in cytosolic [Ca^2+]	No significant calcium responses			calcium responses elicited	insensitive	do not exhibit significant response	No significant calcium responses	Agonist
